# Test results from US11590139B2, “Substituted aminopurine compounds, compositions thereof, and methods of treatment therewith” (Signal Pharmaceuticals, LLC, priority 2014, dated 2023).
# System: Lox-IMVI melanoma cell line
# Assay: Lox-IMVI anti-proliferative assay (growth inhibition, Cell Titer-Glo)
# Type: cell-based, human
# Conditions: Homo sapiens; IC50 activity level in the cell-based Lox-IMVI anti-proliferative assay; read-out: Activity
# In short: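 Growth inhibition is assessed over 72 h in RPMI + 10% FBS at 0.2% DMSO, with ATP-based luminescence used as the viability measure. IC50 is fitted from normalized dose-response data.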
row,IC50 [nM],Compound
1,> 1000,"NC(=O)[C@H]1CC[C@@H](n2c(Nc3c(F)cc(F)cc3Cl)nc3cnc(NC4COCC4O)nc32)CC1 (stereo partly drawn) [Example 179, (1s,4s)-4-(8-(2-chloro-4,6-difluorophenylamino)-2-(4-hydroxytetrahydrofuran-3-ylamino)-9H-purin-9-yl)cyclohexanecarboxamide]"
2,> 1000,"NC(=O)[C@H]1CC[C@@H](n2c(Nc3c(Cl)cccc3Cl)nc3cnc(NC4COCC4O)nc32)CC1 (stereo partly drawn) [Example 180, (1s,4s)-4-(8-(2,6-dichlorophenylamino)-2-(4-hydroxytetrahydrofuran-3-ylamino)-9H-purin-9-yl)cyclohexanecarboxamide]"
3,500 to 1000,"NC(=O)[C@H]1CC[C@@H](n2c(Nc3c(Cl)cc(Cl)cc3Cl)nc3cnc(NC4COCC4O)nc32)CC1 (stereo partly drawn) [Example 181, (1s,4s)-4-(2-(4-hydroxytetrahydrofuran-3-ylamino)-8-(2,4,6-trichlorophenylamino)-9H-purin-9-yl)cyclohexanecarboxamide]"
4,> 1000,"NC(=O)[C@H]1CC[C@@H](n2c(Nc3c(F)cc(Cl)cc3Cl)nc3cnc(NC4COCC4O)nc32)CC1 (stereo partly drawn) [Example 182, (1s,4s)-4-(8-(2,4-dichloro-6-fluorophenylamino)-2-(4-hydroxytetrahydrofuran-3-ylamino)-9H-purin-9-yl)cyclohexanecarboxamide]"
5,> 1000,"NC(=O)[C@H]1CC[C@@H](n2c(Nc3c(Cl)cc(F)cc3Cl)nc3cnc(NC4COCC4O)nc32)CC1 (stereo partly drawn) [Example 183, (1s,4s)-4-(8-(2,6-dichloro-4-fluorophenylamino)-2-(4-hydroxytetrahydrofuran-3-ylamino)-9H-purin-9-yl)cyclohexanecarboxamide]"
6,> 1000,"NC(=O)[C@H]1CC[C@@H](n2c(Nc3c(F)cc(Cl)cc3F)nc3cnc(NC4COCC4O)nc32)CC1 (stereo partly drawn) [Example 184, (1s,4s)-4-(8-(4-chloro-2,6-difluorophenylamino)-2-(4-hydroxytetrahydrofuran-3-ylamino)-9H-purin-9-yl)cyclohexanecarboxamide]"
7,< 250,"NC(=O)[C@H]1CC[C@@H](n2c(Nc3c(F)cc(F)cc3Cl)nc3cnc(NC4CCC(F)(F)CC4)nc32)CC1 [Example 185, (1s,4s)-4-(8-(2-chloro-4,6-difluorophenylamino)-2-(4,4-difluorocyclohexylamino)-9H-purin-9-yl)cyclohexanecarboxamide]"
8,< 250,"NC(=O)[C@H]1CC[C@@H](n2c(Nc3c(F)cc(Cl)cc3Cl)nc3cnc(NC4CCC(F)(F)CC4)nc32)CC1 [Example 186, (1s,4s)-4-(8-(2,4-dichloro-6-fluorophenylamino)-2-(4,4-difluorocyclohexylamino)-9H-purin-9-yl)cyclohexanecarboxamide]"
9,> 1000,"NC(=O)[C@H]1CC[C@@H](n2c(Nc3c(F)cc(F)cc3Cl)nc3cnc(N[C@@H]4CCCOC4)nc32)CC1 [Example 187, (1S,4s)-4-(8-(2-chloro-4,6-difluorophenylamino)-2-((R)-tetrahydro-2H-pyran-3-ylamino)-9H-purin-9-yl)cyclohexanecarboxamide]"
10,> 1000,"NC(=O)[C@H]1CC[C@@H](n2c(Nc3c(F)cc(Cl)cc3F)nc3cnc(N[C@@H]4CCCOC4)nc32)CC1 [Example 188, (1S,4s)-4-(8-(4-chloro-2,6-difluorophenylamino)-2-((R)-tetrahydro-2H-pyran-3-ylamino)-9H-purin-9-yl)cyclohexanecarboxamide]"
11,> 1000,"NC(=O)[C@H]1CC[C@@H](n2c(Nc3c(Cl)cc(F)cc3Cl)nc3cnc(N[C@@H]4CCCOC4)nc32)CC1 [Example 189, (1S,4s)-4-(8-(2,6-dichloro-4-fluorophenylamino)-2-((R)-tetrahydro-2H-pyran-3-ylamino)-9H-purin-9-yl)cyclohexanecarboxamide]"
12,> 1000,"NC(=O)[C@H]1CC[C@@H](n2c(Nc3c(F)cc(Cl)cc3Cl)nc3cnc(N[C@@H]4CCCOC4)nc32)CC1 [Example 190, (1S,4s)-4-(8-(2,4-dichloro-6-fluorophenylamino)-2-((R)-tetrahydro-2H-pyran-3-ylamino)-9H-purin-9-yl)cyclohexanecarboxamide]"
